The test system of the test is BDF1 mice, P388 leukemia ip, median survival T/C. The experiment in a line: NCI In Vivo Anticancer Drug Screen. Data for tumor model P388 Leukemia (intraperitoneal) in B6D2F1 (BDF1) mice. To be noted: endpoint: median survival time, higher = longer survival. An outline of the steps:
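Each value expresses how treatment altered survival: treated-mouse outcome over vehicle-mouse outcome, both groups bearing the transplanted tumour.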

[1] abbreviates: dose: 25.0 mg/kg/injection, schedule: Q01DX009 (ip), vehicle: saline.
[2] abbreviates: dose: 50.0 mg/kg/injection, schedule: Q01DX009 (ip), vehicle: saline.
Setting [3] is: dose: 50.0 mg/kg/injection, schedule: Q04DX003 (ip), vehicle: saline.
Where [4] appears, read: dose: 100.0 mg/kg/injection, schedule: Q04DX003 (ip), vehicle: saline.
[5] abbreviates: dose: 25.0 mg/kg/injection, schedule: Q04DX003 (ip), vehicle: saline.
Setting [6] is: dose: 12.5 mg/kg/injection, schedule: Q01DX009 (ip), vehicle: saline.
Setting [7] is: dose: 100.0 mg/kg/injection, schedule: Q04DX003 (ip), vehicle: Klucel (hydroxypropylcellulose) (HPC).
Where [8] appears, read: dose: 200.0 mg/kg/injection, schedule: Q04DX003 (ip), vehicle: Klucel (hydroxypropylcellulose) (HPC).
[9] abbreviates: dose: 50.0 mg/kg/injection, schedule: Q01DX009 (ip), vehicle: saline with Tween-80.
Where [10] appears, read: dose: 100.0 mg/kg/injection, schedule: Q01DX009 (ip), vehicle: saline with Tween-80.
Setting [11] is: dose: 100.0 mg/kg/injection, schedule: Q04DX003 (ip), vehicle: saline with Tween-80.
The mark [12] stands for this setting: dose: 200.0 mg/kg/injection, schedule: Q04DX003 (ip), vehicle: saline with Tween-80.
[13] abbreviates: dose: 400.0 mg/kg/injection, schedule: Q04DX003 (ip), vehicle: saline with Tween-80.
[14] abbreviates: dose: 200.0 mg/kg/injection, schedule: Q01DX009 (ip), vehicle: saline with Tween-80.

“And” between values parts separate entries of the source, which are not always exact repeats. Identical values can stand only once. Toxic doses and inconclusive results are not listed.

For the compound `CC1(C)CC(=O)c2ccccc21`, the T/C by setting is: under setting [1], 99 % of control; under setting [2], 115 % of control; under setting [3], 102 % of control; (dose: 100.0 mg/kg/injection, schedule: Q01DX009 (ip), vehicle: saline) 95 % of control; under setting [4], 100 % of control; (dose: 200.0 mg/kg/injection, schedule: Q04DX003 (ip), vehicle: saline) 109 % of control.
`Cc1cccnc1N1CCNC1=O`: the T/C was 90 % of control under setting [5], 90 % of control under setting [3] and 100 % of control under setting [4].
With `CC[C@]1(O)C[C@H](OC2CC(N(C)C)C(OC3CC(O)C(O)C(C)O3)C(C)O2)c2c(cc3c(c2O)C(=O)c2c(O)ccc(O)c2C3=O)[C@H]1C(=O)OC` (stereo not given in full), the T/C reads like this: (dose: 0.4 mg/kg/injection, schedule: Q01DX009 (ip), vehicle: Klucel (hydroxypropylcellulose) (HPC)) 171 % of control; (dose: 0.8 mg/kg/injection, schedule: Q01DX009 (ip), vehicle: Klucel (hydroxypropylcellulose) (HPC)) 158 % of control and 165 % of control; (dose: 1.6 mg/kg/injection, schedule: Q01DX009 (ip), vehicle: Klucel (hydroxypropylcellulose) (HPC)) 201 % of control and 222 % of control; (dose: 3.46 mg/kg/injection, schedule: Q04DX003 (ip), vehicle: other) 185 % of control; (dose: 5.76 mg/kg/injection, schedule: Q04DX003 (ip), vehicle: other) 217 % of control; (dose: 9.6 mg/kg/injection, schedule: Q04DX003 (ip), vehicle: other) 105 % of control.
For the compound `CC(C)(C)N=Cc1ccccc1O.CC(C)(C)N=Cc1ccccc1O.[Cu]`, the T/C runs as follows: (dose: 6.25 mg/kg/injection, schedule: Q04DX003 (ip), vehicle: saline) 100 % of control; (dose: 12.5 mg/kg/injection, schedule: Q04DX003 (ip), vehicle: saline) 90 % of control; under setting [5], 95 % of control.
As to `CCN(CC)CCn1c(=O)c2ccccc2c2ccccc21`, the T/C is 120 % of control under setting [6], 105 % of control under setting [1] and 120 % of control under setting [2].
On to `CC1(C)N=C(N)N=C(N)N1c1ccc(OCCCOc2ccc(S(=O)(=O)F)cc2)c(Cl)c1`, for which the T/C reads like this: (dose: 0.66 mg/kg/injection, schedule: Q01DX009 (ip), vehicle: saline) 108 % of control; (dose: 0.99 mg/kg/injection, schedule: Q01DX009 (ip), vehicle: saline) 104 % of control; under setting [6], 165 % of control; under setting [1], 115 % of control; (dose: 33.0 mg/kg/injection, schedule: Q04DX003 (ip), vehicle: saline) 109 % of control and 120 % of control; under setting [3], 114 % of control and 120 % of control. Moreover, the T/C (dose: 75.0 mg/kg/injection, schedule: Q04DX003 (ip), vehicle: saline) is 114 % of control.
Consider `O=C(c1ccc(Cl)cc1)c1cccc[n+]1Cc1ccccc1`, for which the T/C was 100 % of control (dose: 0.37 mg/kg/injection, schedule: Q01DX009 (ip), vehicle: Klucel (hydroxypropylcellulose) (HPC)); 104 % of control (dose: 18.75 mg/kg/injection, schedule: Q01DX009 (ip), vehicle: Klucel (hydroxypropylcellulose) (HPC)); 100 % of control (dose: 28.12 mg/kg/injection, schedule: Q04DX003 (ip), vehicle: Klucel (hydroxypropylcellulose) (HPC)); 109 % of control (dose: 37.5 mg/kg/injection, schedule: Q01DX009 (ip), vehicle: Klucel (hydroxypropylcellulose) (HPC)); 95 % of control (dose: 56.25 mg/kg/injection, schedule: Q04DX003 (ip), vehicle: Klucel (hydroxypropylcellulose) (HPC)); 100 % of control (dose: 112.5 mg/kg/injection, schedule: Q04DX003 (ip), vehicle: Klucel (hydroxypropylcellulose) (HPC)).
With `CC(=O)C1CCC=C2C1CC1CC2C1(C)C` (stereo not given), the T/C runs as follows: under setting [7], 100 % of control; under setting [8], 109 % of control; (dose: 400.0 mg/kg/injection, schedule: Q04DX003 (ip), vehicle: Klucel (hydroxypropylcellulose) (HPC)) 104 % of control.
In the case of `O=[N+]([O-])c1ccc(N2CCCC(n3cccc3)C2)c([N+](=O)[O-])c1` (stereo not given), the T/C by setting is: under setting [9], 109 % of control; under setting [10], 115 % of control.
Turning to `CCOc1ccccc1CC(=O)O`, the T/C is 100 % of control under setting [11], 100 % of control under setting [12] and 104 % of control under setting [13].
As to `O=C(O)/C(=C\c1ccncc1)c1cccc2ccccc12`, the T/C by setting is: (dose: 50.0 mg/kg/injection, schedule: Q04DX003 (ip), vehicle: Klucel (hydroxypropylcellulose) (HPC)) 100 % of control; under setting [7], 100 % of control; under setting [8], 100 % of control.
With `C/C=C/C(=O)OC1CC(=O)N(C)c2cc(cc(OC)c2Cl)C/C(C)=C/C=CC(OC)C2(O)CC(OC(=O)N2)C(C)C2OC12C` (stereo not given), the T/C (dose: 0.8 micrograms/kg/injection, schedule: Q01DX009 (ip), vehicle: saline + alcohol) was 150 % of control; the T/C (dose: 1.5 micrograms/kg/injection, schedule: Q01DX009 (ip), vehicle: saline + alcohol) was 150 % of control; the T/C (dose: 3.1 micrograms/kg/injection, schedule: Q01DX009 (ip), vehicle: saline + alcohol) is 150 % of control; the T/C (dose: 6.2 micrograms/kg/injection, schedule: Q01DX009 (ip), vehicle: saline + alcohol) is 160 % of control; the T/C (dose: 12.5 micrograms/kg/injection, schedule: Q01DX009 (ip), vehicle: saline + alcohol) was 170 % of control; the T/C (dose: 25.0 micrograms/kg/injection, schedule: Q01DX009 (ip), vehicle: saline + alcohol) is 173 % of control. Further, the T/C is, setting by setting: (dose: 50.0 micrograms/kg/injection, schedule: Q01DX009 (ip), vehicle: saline + alcohol) 210 % of control; (dose: 100.0 micrograms/kg/injection, schedule: Q01DX009 (ip), vehicle: saline + alcohol) 210 % of control; (dose: 200.0 micrograms/kg/injection, schedule: Q01DX009 (ip), vehicle: saline + alcohol) 210 % of control.
`[Se]c1ccnc([Se])n1`: the T/C reads like this: (dose: 50.0 mg/kg/injection, schedule: Q04DX003 (ip), vehicle: saline with Tween-80) 100 % of control; under setting [11], 90 % of control; under setting [12], 100 % of control.
As for `Cc1onc(-c2ccccc2)c1NC(=O)OCc1ccc(-c2cc(C(F)(F)F)cc(C(F)(F)F)c2)o1`, the T/C under setting [9] is 97 % of control, the T/C under setting [10] was 99 % of control and the T/C under setting [14] is 99 % of control.
Consider `CC(C)C(=O)c1ccc(-c2ccccc2)cc1`, for which the T/C reads like this: (dose: 12.5 mg/kg/injection, schedule: Q01DX009 (ip), vehicle: water) 105 % of control; (dose: 25.0 mg/kg/injection, schedule: Q01DX009 (ip), vehicle: water) 113 % of control; (dose: 25.0 mg/kg/injection, schedule: Q04DX003 (ip), vehicle: water) 97 % of control; (dose: 50.0 mg/kg/injection, schedule: Q01DX009 (ip), vehicle: water) 102 % of control; (dose: 50.0 mg/kg/injection, schedule: Q04DX003 (ip), vehicle: water) 101 % of control; (dose: 100.0 mg/kg/injection, schedule: Q01DX009 (ip), vehicle: water) 111 % of control. Moreover, the T/C (dose: 100.0 mg/kg/injection, schedule: Q04DX003 (ip), vehicle: water) was 97 % of control; the T/C (dose: 200.0 mg/kg/injection, schedule: Q01DX009 (ip), vehicle: water) is 102 % of control; the T/C (dose: 200.0 mg/kg/injection, schedule: Q04DX003 (ip), vehicle: water) was 92 % of control; the T/C (dose: 400.0 mg/kg/injection, schedule: Q01DX009 (ip), vehicle: water) was 119 % of control; the T/C (dose: 400.0 mg/kg/injection, schedule: Q04DX003 (ip), vehicle: water) is 89 % of control.
For `C#CCN(C)Cc1ccccc1`, the T/C was 95 % of control (dose: 50.0 mg/kg/injection, schedule: Q01DX010 (ip), vehicle: saline); 100 % of control (dose: 100.0 mg/kg/injection, schedule: Q01DX010 (ip), vehicle: saline); 109 % of control (dose: 200.0 mg/kg/injection, schedule: Q01DX010 (ip), vehicle: saline).
For `CCNS(=O)(=O)c1ncnc2nc[nH]c12`, the T/C under setting [10] was 100 % of control; the T/C under setting [11] is 104 % of control; the T/C under setting [14] was 100 % of control; the T/C under setting [12] is 100 % of control; the T/C (dose: 400.0 mg/kg/injection, schedule: Q01DX009 (ip), vehicle: saline with Tween-80) is 100 % of control; the T/C under setting [13] is 100 % of control.
